Source: patent publication US20240316047A1, “INHIBITORS OF RNA HELICASE DHX9 AND USES THEREOF” (ACCENT THERAPEUTICS, INC., priority 2022, published 2024)

Target: Human recombinant DHX9 protein (Homo sapiens (Human), UniProt Q08211)
Assay: DHX9 ATPase assay (ADP-Glo)
Format: biochemical
Conditions: for IC50: read-out: DHX9 Biochemical Inflection Point

Chain of Human recombinant DHX9 protein (Q08211 whole entry): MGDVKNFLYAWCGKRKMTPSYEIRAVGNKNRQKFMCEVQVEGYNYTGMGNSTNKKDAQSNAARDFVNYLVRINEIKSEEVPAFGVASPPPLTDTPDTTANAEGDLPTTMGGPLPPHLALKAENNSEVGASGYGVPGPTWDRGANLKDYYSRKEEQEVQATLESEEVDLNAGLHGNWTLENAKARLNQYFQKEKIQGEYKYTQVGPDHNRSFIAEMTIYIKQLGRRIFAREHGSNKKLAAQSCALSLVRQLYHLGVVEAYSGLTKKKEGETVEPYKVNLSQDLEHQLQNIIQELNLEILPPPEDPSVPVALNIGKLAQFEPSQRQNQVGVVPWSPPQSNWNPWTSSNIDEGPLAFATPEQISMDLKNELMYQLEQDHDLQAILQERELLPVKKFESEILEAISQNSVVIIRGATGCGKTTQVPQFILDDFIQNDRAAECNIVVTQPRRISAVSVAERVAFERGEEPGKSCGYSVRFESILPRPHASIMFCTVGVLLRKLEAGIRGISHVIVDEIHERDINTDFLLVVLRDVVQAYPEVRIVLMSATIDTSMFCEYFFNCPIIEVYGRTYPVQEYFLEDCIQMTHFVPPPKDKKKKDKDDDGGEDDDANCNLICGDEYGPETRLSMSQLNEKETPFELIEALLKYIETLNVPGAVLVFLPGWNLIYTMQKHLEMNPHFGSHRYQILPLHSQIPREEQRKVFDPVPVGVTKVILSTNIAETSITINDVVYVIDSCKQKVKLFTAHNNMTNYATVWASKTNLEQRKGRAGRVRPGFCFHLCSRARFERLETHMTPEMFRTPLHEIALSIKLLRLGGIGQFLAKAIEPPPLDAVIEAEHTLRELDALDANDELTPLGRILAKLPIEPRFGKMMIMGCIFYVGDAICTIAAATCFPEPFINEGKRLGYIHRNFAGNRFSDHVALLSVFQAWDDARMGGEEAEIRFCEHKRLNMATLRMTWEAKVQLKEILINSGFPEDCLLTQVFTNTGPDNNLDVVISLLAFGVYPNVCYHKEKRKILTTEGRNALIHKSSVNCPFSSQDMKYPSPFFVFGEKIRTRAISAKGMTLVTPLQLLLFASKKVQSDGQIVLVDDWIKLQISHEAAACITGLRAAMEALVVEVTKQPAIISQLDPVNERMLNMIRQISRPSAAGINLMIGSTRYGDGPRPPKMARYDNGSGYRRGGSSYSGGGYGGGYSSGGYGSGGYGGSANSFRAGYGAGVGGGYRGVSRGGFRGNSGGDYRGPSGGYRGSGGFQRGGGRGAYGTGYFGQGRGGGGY

DHX9 Biochemical Max Inhibition	IC50	SMILES
65.2	31.1 nM	CCS(=O)(=O)Nc1cc(Cl)cc(NC(=O)c2cc(-c3ccc(F)cn3)n(C)c2)c1 [Example 579]
73.6	19 nM	COc1cnc(-c2cc(C(=O)Nc3cc(Cl)cc(NS(C)(=O)=O)c3)cn2C)nc1 [Example 549]
63.3%	300 nM	Cn1nc(C(=O)Nc2cc(Cl)cc(NS(C)(=O)=O)c2)cc1-c1ccccn1 [Example 140]
59.5	40.9 nM	Cn1cc(C(=O)Nc2cc(Cl)cc(NS(C)(=O)=O)c2)cc1-c1ncc(OC2CN(C(=O)C3CC3)C2)cc1F [Example 697]
79.7	76.1 nM	Cn1cc(C(=O)Nc2cc(Cl)cc(NS(C)(=O)=O)c2)cc1-c1ncc(C(F)(F)F)cc1F [Example 554]
66.2%	18.8 nM	CS(=O)(=O)Nc1cc(Cl)cc(NC(=O)c2cnn(-c3ncccc3OCc3cncnc3)c2)c1 [Example 188]
72.5%	4.3 nM	Cn1cc(C(=O)Nc2cc(Cl)cc(NS(C)(=O)=O)c2)cc1-c1ccc(N2CC3(COC3)C2)cn1 [Example 277]
56.7	153 nM	Cn1cc(C(=O)Nc2cc(Cl)cc(NS(C)(=O)=O)c2)cc1-c1ncc(N2CCC3(CC2)CC3(F)F)cc1F [Example 518]
77.3	7.9 nM	COc1cc(F)cnc1-c1cc(C(=O)Nc2cc(Cl)cc(NS(C)(=O)=O)c2)cn1C [Example 568, N-(3-chloro-5-methanesulfonamidophenyl)-5-(5-fluoro-3-methoxypyridin-2-yl)-1-methylpyrrole-3-carboxamide]
71.2%	493 nM	CS(=O)(=O)Nc1cc(Cl)cc(NC(=O)c2cc(-c3ccccc3)n(CC(F)(F)F)c2)c1 [Example 80]
68%	61 nM	CS(=O)(=O)Nc1cc(Br)cc(NC(=O)c2cc(Cc3ccc[nH]3)cs2)c1 [Example 104, 4-((1H-pyrrol-2-yl)methyl)-N-(3-bromo-5-(methylsulfonamido)phenyl)-thiophene-2-carboxamide]
63.2%	138 nM	CS(=O)(=O)Nc1cc(Cl)cc(NC(=O)c2cnn([C@H]3CCC[C@H](O)C3)c2)c1 (single isomer, unassigned) [Example 152a]
70%	131 nM	Cc1cc(C(=O)Nc2cc(Cl)cc(NS(=O)(=O)C3CC3)c2)cn1-c1ccc(N2CCOCC2)cn1 [Example 247]
63.5%	40.6 nM	CS(=N)(=O)Nc1cc(Br)cc(NC(=O)c2cc(-c3ccccn3)cs2)c1 (stereo not drawn) [Example 121, N-(3-bromo-5-(methylsulfonoamidimidamido)phenyl)-4-(pyridin-2-yl)thiophene-2-carboxamide]
60%	579 nM	Cc1cccnc1-c1csc(C(=O)Nc2cc(Cl)cc(N(C)S(C)(=O)=O)c2)c1 [Example 374]
68.5%	76 nM	CS(=O)(=O)Nc1cc(Cl)cc(NC(=O)c2cc3cccnn3c2)c1 [Example 292]
46.1	53.9 nM	Cc1cc(N2CC(F)(F)C2)cnc1-c1cc(C(=O)Nc2cc(Cl)cc(NS(C)(=O)=O)c2)cn1C [Example 461]
75.8	29.4 nM	Cn1cc(C(=O)Nc2cc(Cl)cc(NS(C)(=O)=O)c2)cc1-c1ncncc1OCc1cc(F)cc(F)c1 [Example 627]
73.8	73.3 nM	Cc1sc(C(=O)Nc2cc(Cl)cc(NS(C)(=O)=O)c2)cc1-c1ncc(N2CC(F)(F)C2)cc1OC1CCC1 [Example 514]
71.6%	16.4 nM	CN(C)C(=O)c1sc(C(=O)Nc2cc(Cl)cc(NS(C)(=O)=O)c2)cc1-c1ncccc1OCc1ccccc1 [Example 213]

DHX9 Biochemical Max Inhibition	IC50	SMILES
49.9	287 nM	Cc1sc(C(=O)Nc2cc(Cl)cc(NS(=O)(=O)CCO)c2)cc1-c1ncc(OC(C)C)cn1 [Example 582]
75.9	55.6 nM	Cn1cc(C(=O)Nc2cc(Cl)cc(NS(C)(=O)=O)c2)cc1-c1ccc(C(F)(F)F)cn1 [Example 569]
68.1	343 nM	CS(=O)(=O)Nc1cc(Cl)cc(NC(=O)c2cc(-c3ncc(F)cn3)n(C3CNC3)c2)c1 [Example 652]
60%	15.7 nM	CS(=O)(=O)Nc1cc(Br)cc(NC(=O)c2cnn(-c3cnccn3)c2)c1 [Example 40]
75.4	7.2 nM	Cc1ncccc1-c1cc(F)cnc1-c1cc(C(=O)Nc2cc(Cl)cc(NS(C)(=O)=O)c2)sc1C [Example 608]
77.5	2.4 nM	Cc1sc(C(=O)Nc2cc(Cl)cc(NS(C)(=O)=O)c2)cc1-c1ncc(C2(O)CN(C)C2)cc1F [Example 681]
66.6%	205 nM	CS(=O)(=O)Nc1cc(Cl)cc(NC(=O)c2cnn(C3CCN(CC(F)(F)F)CC3)c2)c1 [Example 316]
67.1%	35.3 nM	CC(C)(O)COc1cccnc1-n1cc(C(=O)Nc2cc(Cl)cc(NS(C)(=O)=O)c2)cn1 [Example 195]
64.6	27.3 nM	CCS(=O)(=O)Nc1cc(Cl)cc(NC(=O)c2cc(-c3ncc(C)cc3F)n(C)c2)c1 [Example 548]
70.6%	5.4 nM	Cc1cc(C(=O)Nc2cc(Cl)cc(NS(C)(=O)=O)c2)cn1-c1ccc(N2CCS(=O)(=O)CC2)cn1 [Example 285]
69.7%	105 nM	COC(=O)[C@@H]1CCCN1c1csc(C(=O)Nc2cc(Cl)cc(NS(C)(=O)=O)c2)c1 [Example 242]
71.6%	5.4 nM	Cc1cc(C(=O)Nc2cc(Cl)cc(NS(C)(=O)=O)c2)cn1-c1ccc(N2CCOC(C)(C)C2)cn1 [Example 272]
58.6%	49.7 nM	Cc1cccnc1-n1cc(C(=O)Nc2cc(Br)cc(NS(C)(=O)=O)c2)cn1 [Example 49]
87.4	105 nM	Cn1cc(C(=O)Nc2cc(Cl)cc(NS(C)(=O)=O)c2)cc1-c1cccc(N2CC(F)(F)C2)n1 [Example 551]
65.4	38 nM	Cn1cc(C(=O)Nc2cc(Cl)cc(NS(C)(=O)=O)c2)cc1-c1ccc(N2CC3(C2)CC(F)(F)C3)cn1 [Example 498]
75.2%	6.3 nM	Cc1sc(C(=O)Nc2cc(Cl)cc(NS(C)(=O)=O)c2)cc1-c1ncccc1OCc1ccccc1 [Example 34]
40.5%	787 nM	CS(=O)(=O)Nc1cc(Br)cc(NC(=O)c2cc(-c3ccccc3OCc3ccccc3)cs2)c1 [Example 30]
67.5%	186 nM	CS(=O)(=O)Nc1cc(Cl)cc(NC(=O)c2cc(N3CCN(CC(F)(F)F)CC3)cs2)c1 [Example 246]
71.2	6.6 nM	Cc1ncc(OCc2cc(F)cc(F)c2)c(-c2cc(C(=O)Nc3cc(Cl)cc(NS(C)(=O)=O)c3)cn2C)n1 [Example 734]
